Remaining binding data for three compounds are collected here from patent publication US10870647B2, “Imidazopyridine derivative, method for preparing same, and pharmaceutical composition containing same as active ingredient for preventing or treating cancer” (DAEGU-GYEONGBUK MEDICAL INNOVATION FOUNDATION, priority 2016, dated 2020).

Test in all cases: Kinase selectivity, scanMAX Kinase assay panel (DiscoverX), % control at 1 uM
What all share (assay type): binding

The target in assay [1] is T1, scanMAX Kinase assay panel (Homo sapiens, UniProt Q86YV6).
T1 construct: purchased DiscoverX
T1 sequence (Q86YV6 1-388): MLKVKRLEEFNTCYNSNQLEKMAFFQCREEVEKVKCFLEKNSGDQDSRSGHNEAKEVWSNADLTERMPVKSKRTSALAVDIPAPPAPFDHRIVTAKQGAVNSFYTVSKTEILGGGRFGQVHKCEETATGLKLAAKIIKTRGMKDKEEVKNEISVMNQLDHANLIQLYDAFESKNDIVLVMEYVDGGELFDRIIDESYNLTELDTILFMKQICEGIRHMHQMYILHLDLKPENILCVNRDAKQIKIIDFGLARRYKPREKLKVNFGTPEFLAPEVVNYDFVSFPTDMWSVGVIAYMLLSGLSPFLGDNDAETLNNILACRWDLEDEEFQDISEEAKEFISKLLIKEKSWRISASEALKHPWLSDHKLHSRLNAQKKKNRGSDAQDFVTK
Particulars: MYLK4; 1 uM; read-out: Percent Control (%). An outline of the steps: (§1)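 Activity was called for kinases showing % control under 35, calculated from compound signal relative to positive and negative controls. Each compound screened at 1 uM against the DiscoverX scanMAX panel.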

Assay [2] deals with T2, scanMAX Kinase assay panel (Homo sapiens, UniProt O75460).
T2 construct: purchased DiscoverX
T2 sequence (O75460 19-977): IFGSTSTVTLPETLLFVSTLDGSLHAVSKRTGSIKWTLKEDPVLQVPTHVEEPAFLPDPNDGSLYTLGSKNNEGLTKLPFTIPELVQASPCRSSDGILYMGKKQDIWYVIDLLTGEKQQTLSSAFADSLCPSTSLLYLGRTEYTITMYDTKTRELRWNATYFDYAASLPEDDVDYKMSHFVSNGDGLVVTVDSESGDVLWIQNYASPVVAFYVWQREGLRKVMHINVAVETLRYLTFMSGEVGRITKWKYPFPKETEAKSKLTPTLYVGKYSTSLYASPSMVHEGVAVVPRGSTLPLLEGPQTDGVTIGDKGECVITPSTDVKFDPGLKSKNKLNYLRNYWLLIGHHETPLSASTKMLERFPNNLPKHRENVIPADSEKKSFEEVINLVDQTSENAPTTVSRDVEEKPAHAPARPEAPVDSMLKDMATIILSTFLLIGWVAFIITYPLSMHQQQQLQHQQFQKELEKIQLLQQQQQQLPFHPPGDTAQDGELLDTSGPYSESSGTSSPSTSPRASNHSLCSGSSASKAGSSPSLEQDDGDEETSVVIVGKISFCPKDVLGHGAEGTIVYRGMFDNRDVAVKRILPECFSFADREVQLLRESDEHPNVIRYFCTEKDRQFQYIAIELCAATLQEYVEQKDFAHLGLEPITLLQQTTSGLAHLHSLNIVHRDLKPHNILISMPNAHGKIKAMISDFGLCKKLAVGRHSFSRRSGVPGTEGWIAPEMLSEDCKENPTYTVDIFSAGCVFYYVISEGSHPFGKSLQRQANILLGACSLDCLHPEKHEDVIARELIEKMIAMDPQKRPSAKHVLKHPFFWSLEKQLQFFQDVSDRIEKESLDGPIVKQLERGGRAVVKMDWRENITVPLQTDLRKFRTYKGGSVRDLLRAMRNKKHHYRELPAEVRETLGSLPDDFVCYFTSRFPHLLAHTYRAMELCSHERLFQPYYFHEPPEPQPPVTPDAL
Particulars: ERN1; 1 uM; read-out: Percent Control (%). An outline of the steps:
as §1

Assay [3] has as its target T3, scanMAX Kinase assay panel (Homo sapiens, UniProt Q9Y2U5).
T3 construct: purchased DiscoverX
T3 sequence (Q9Y2U5 1-619): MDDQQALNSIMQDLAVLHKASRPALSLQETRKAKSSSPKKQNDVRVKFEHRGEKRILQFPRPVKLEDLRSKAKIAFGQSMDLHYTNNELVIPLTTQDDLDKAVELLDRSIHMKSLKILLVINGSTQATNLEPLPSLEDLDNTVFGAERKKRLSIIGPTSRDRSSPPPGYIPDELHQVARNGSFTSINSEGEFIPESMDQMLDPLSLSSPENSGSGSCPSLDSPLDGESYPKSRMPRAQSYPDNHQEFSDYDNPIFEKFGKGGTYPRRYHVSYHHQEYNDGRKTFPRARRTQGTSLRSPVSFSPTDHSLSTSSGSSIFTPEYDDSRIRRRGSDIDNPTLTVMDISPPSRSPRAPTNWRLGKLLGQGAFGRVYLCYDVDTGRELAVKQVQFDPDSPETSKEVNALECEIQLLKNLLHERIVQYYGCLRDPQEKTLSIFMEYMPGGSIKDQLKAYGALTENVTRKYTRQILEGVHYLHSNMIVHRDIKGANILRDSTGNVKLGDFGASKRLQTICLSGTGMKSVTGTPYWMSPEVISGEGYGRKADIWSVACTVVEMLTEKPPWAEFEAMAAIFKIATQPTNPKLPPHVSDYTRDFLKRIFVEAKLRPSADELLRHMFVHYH
Conditions: MAP3K2; 1 uM; read-out: Percent Control (%). Put shortly:
as §1

The target in assay [4] is T4, scanMAX Kinase assay panel (Homo sapiens, UniProt Q96RR4).
T4 construct: purchased DiscoverX
T4 sequence (Q96RR4 whole entry): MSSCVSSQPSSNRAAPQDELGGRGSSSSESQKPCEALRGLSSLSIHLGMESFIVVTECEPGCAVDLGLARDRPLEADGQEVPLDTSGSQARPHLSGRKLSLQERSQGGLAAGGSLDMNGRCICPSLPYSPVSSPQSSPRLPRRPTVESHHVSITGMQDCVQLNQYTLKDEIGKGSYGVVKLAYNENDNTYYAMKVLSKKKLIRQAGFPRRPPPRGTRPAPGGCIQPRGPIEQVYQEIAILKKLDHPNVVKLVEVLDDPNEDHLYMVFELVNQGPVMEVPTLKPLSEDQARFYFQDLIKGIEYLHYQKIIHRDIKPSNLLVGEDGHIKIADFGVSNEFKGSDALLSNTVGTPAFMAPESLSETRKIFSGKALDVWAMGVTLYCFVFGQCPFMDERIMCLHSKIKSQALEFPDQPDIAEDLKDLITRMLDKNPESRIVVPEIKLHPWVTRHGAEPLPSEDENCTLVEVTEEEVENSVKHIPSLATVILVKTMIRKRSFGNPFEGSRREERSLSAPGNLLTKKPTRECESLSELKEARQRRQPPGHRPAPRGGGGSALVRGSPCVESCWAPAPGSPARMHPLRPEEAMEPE
Particulars: CAMKK2; 1 uM; read-out: Percent Control (%). Put shortly:
as §1

For assay [5], the target named is T5, scanMAX Kinase assay panel (Homo sapiens, UniProt O14733).
T5 construct: purchased DiscoverX
T5 sequence (O14733 1-419): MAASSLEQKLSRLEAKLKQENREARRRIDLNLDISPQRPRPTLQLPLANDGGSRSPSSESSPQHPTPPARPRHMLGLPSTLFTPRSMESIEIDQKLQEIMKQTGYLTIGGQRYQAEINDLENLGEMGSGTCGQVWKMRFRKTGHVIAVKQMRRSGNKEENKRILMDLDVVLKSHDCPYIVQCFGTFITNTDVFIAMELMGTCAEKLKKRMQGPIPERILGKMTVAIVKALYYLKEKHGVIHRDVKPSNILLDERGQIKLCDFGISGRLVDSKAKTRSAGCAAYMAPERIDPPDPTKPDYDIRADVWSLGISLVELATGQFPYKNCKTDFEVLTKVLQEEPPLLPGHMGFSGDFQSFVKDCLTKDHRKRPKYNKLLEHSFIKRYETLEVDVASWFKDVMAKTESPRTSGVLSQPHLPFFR
Particulars: MKK7; 1 uM; read-out: Percent Control (%). Put shortly: as §1

As for `Cc1ccc(C(=O)Nc2ccc(CN3CCN(C)CC3)c(C(F)(F)F)c2)cc1C#Cc1cnc2c(Nc3cnn(C)c3)cccn12` [Example 1, 4-methyl-3-((8-((1-methyl-1H-pyrazol-4-yl)amino)imidazo[1,2-a]pyridin-3-yl)ethynyl)-N-(4-((4-methylpiperazin-1-yl)methyl)-3-(trifluoromethyl)phenyl)benzamide], the remaining binding at 1 µM came to 86% in assay [1]; 62% in assay [2]; 1% in assay [3]; 32% in assay [4]; 90% in assay [5].
The matching figures for `Cc1cn(-c2cc(NC(=O)c3ccc(C)c(C#Cc4cnc5c(Nc6cnn(C)c6)cccn45)c3)cc(C(F)(F)F)c2)cn1` [Example 12, 4-methyl-N-(3-(4-methyl-1H-imidazol-1-yl)-5-(trifluoromethyl)phenyl)-3-((8-((1-methyl-1H-pyrazol-4-yl)amino)imidazo[1,2-a]pyridin-3-yl)ethynyl)benzamide]: 92%, 100%, 84%, 77% and 100%.
The corresponding values for `Cc1ccc(NC(=O)C2(C(=O)Nc3ccc(F)cc3)CC2)cc1C#Cc1cnc2c(Nc3cnn(C(C)C)c3)cccn12` [Example 78] are 100%, 97%, 100%, 100% and 99%.
